The source of these data is the METLIN SMRT retention time set (Domingo-Almenara et al. 2019).

Molecules are shown by their SMILES.

The nature of the series: gradient 5% acetonitrile 3 min, to 50% in 2 min, to 85% in 15 min, held 3 min, 100 µL/min. Conditions: column: Zorbax Extend-C18 2.1 x 50 mm; eluents: water / acetonitrile, 0.1% formic acid. The procedure, abridged:
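Pure standards were analyzed in mixtures of ~100 molecules using HPLC coupled to a quadrupole time-of-flight mass spectrometer, in both positive and negative ionization mode. Separation used a Zorbax Extend-C18 column (2.1 × 50 mm, 1.8 μm) at 100 μL/min, with water and acetonitrile each containing 0.1% formic acid. Dead and dwell volumes were 40 μL and 900 μL, and data were collected over 3 months. Retention time was read from computationally picked adduct peaks, each inspected manually.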
The compound `CCCCN(C)C(=O)CCC1CCN(c2cc(NC3CC3)ncn2)CC1` yielded an RP-LC retention time of 654 s.
`CSc1cccc(NC(=O)N2CCc3nc(-c4ccccc4)ncc3C2)c1` had an RP-LC retention time of 955 s.
`CCN(CC)c1ncc2c(n1)CCC(C(=O)Nc1ccc(OC)cc1OC)C2` (stereo not drawn): the RP-LC retention time stood at 726 s.
`CCOC(=O)c1noc2nc(C)nc(Nc3ccc(OCC)cc3)c12` gave an RP-LC retention time of 1130 s.
`Cc1cc(C)n(-c2nc(C)c(C(=O)Nc3cccc(C(F)(F)F)c3)s2)n1` gave an RP-LC retention time of 1260 s.
In the case of `CN(C)C1(CC2CC2)CCN(C(=O)c2ccco2)CC1` it was 556 s; in that of `Cc1ccc(-c2ncc3c(=O)n(Cc4ccc(Cl)cc4)c(=O)n(C)c3n2)cc1`, 1360 s; in that of `O=C(C1CCN(c2nc3ccc(-c4ccccc4)nc3s2)CC1)N1CCCC1`, 910 s.
Consider `Cc1cccn2cc(-c3cccc(S(=O)(=O)N4CC(C)OC(C)C4)c3)nc12` (stereo not drawn), for which the RP-LC retention time worked out at 671 s.
With `Cc1nc(-c2ccc(N3CCN(S(=O)(=O)c4cccnc4)CC3)nc2)no1` the figure was 680 s; with `COc1ccc(CCN2CC(=O)N(c3cc(C)cc(C)c3)[C@@H]3CS(=O)(=O)C[C@@H]32)cc1`, 865 s; with `CCN1CCC(N(Cc2ccc3c(c2)OCO3)C(=O)Nc2cccc(C)c2)CC1`, 691 s.
In the case of `Cc1ccc(-n2ccc(=O)c(-c3nc(-c4ccccc4Br)no3)n2)cc1` it was 950 s.
`CCCCn1cc(S(=O)(=O)NCc2cccc(C(F)(F)F)c2)c2cccnc21` showed an RP-LC retention time of 1050 s.
In the case of `N#Cc1ccc(S(=O)(=O)N2CCCOCCNC(=O)[C@@H]3CCC[C@@H]32)cc1` it was 714 s; in that of `CC(=O)Nc1nc(N2CCC(C(=O)NCc3cccnc3)CC2)sc1C(=O)N1CCCC1`, 581 s.
In the case of `c1ccc(CC2CCN(Cc3nc(-c4ccc(N5CCCCC5)nc4)no3)CC2)cc1` it was 802 s; in that of `Cc1c(C(=O)N2CCCC2)cnn1-c1cc(-c2nc(C3CC3)no2)ccn1`, 864 s.
With `Cc1ccc(Nc2c(-c3ccccc3O)nc3ncccn23)cc1Cl` the figure was 738 s; with `CN1C(=O)Cc2cc(S(=O)(=O)NCc3ccc4c(c3)CCN4C(=O)c3ccccc3)ccc21`, 771 s.
`CCCn1ccc2sc(C)c(C(=O)NCc3cccc(Cl)c3)c2c1=O` displayed an RP-LC retention time of 990 s.
In the case of `COc1cc(-c2nc3ccc(Cl)cn3c2Nc2ccc3c(c2)OCO3)ccc1O` it was 679 s; in that of `O=c1n(Cc2ccc(F)cc2)nc2c(S(=O)(=O)N3CCCC3)cccn12`, 806 s.
`O=C(Nc1nc(-c2cccnc2)cs1)c1ccc(Br)s1` displayed an RP-LC retention time of 654 s.
`COc1cc(NC(=O)CSc2nnnn2C)c2ncccc2c1` returned an RP-LC retention time of 724 s.
`CCn1c(=O)c(C(=O)N2CCN(c3cc(C)ccc3C)CC2)nc2cccnc21` had an RP-LC retention time of 1040 s.
With `Cc1cc(C)c(S(=O)(=O)N2CCc3c(c(-c4nnc(-c5ccc(F)cc5)o4)nn3C)C2)c(C)c1` the figure was 1090 s.
With `CCCN1C(=O)c2cc(C(=O)NCc3ccc(N(C)C)cc3)nn2CC1(C)C(=O)NC1CCCC1` (stereo not drawn) the figure was 655 s; with `CCOc1ccc(C2Cn3nnc(-c4nc(-c5ccccc5F)no4)c3CO2)cc1` (stereo not drawn), 1100 s; with `CCNC(=O)N1CCC(CCOc2cccnc2)CC1`, 579 s.
With `Cc1cc(=O)c(OCc2ccccc2F)cn1CC(=O)NCc1ccco1` the figure was 593 s; with `CCn1cnc2ccc(-c3noc(-c4ccoc4)n3)cc21`, 683 s; with `CCN(Cc1ccncc1)C1CN(C(=O)NCc2ccc(C)cc2)C1`, 591 s.
